IC50 and Activity data for nine molecules are collected here from ChEMBL document CHEMBL1152784, “Discovery of 4-substituted methoxybenzoyl-aryl-thiazole as novel anticancer agents: synthesis, biological evaluation, and structure-activity relationships” (J Med Chem, 2009).

Where only a bound is given, the exact number is not on record here.

The subject of one assay is A-375. Nature of the assay: Cytotoxicity against human A375 cells after 48 hrs by SRB assay. It counts as functional, cell-based. As to conditions: A-375, 48 h. On the technique in general: In SRB staining, fixed cells bind dye roughly in proportion to their protein.
The nature of assay [1]: Cytotoxicity against mouse B16-F1 cells after 48 hrs by SRB assay. As to conditions: B16-F1, 48 h. It counts as functional, cell-based.
For a further assay, the system named is LNCaP. Nature of the assay: Cytotoxicity against human LNCAP cells after 96 hrs by SRB assay. The settings on record: Homo sapiens, LNCaP, 96 h.
The next assay concerns PC-3. Nature of the assay: Cytotoxicity against human PC3 cells after 96 hrs by SRB assay. As to conditions: PC-3, 96 h.
The next assay concerns PPC-1. Briefly: Cytotoxicity against human PPC1 cells after 96 hrs by SRB assay. The settings on record: Homo sapiens, PPC-1, 96 h.
The subject of assay [2] is DU-145. Nature of the assay: Cytotoxicity against human DU145 cells after 96 hrs by SRB assay. The settings on record: DU-145, 96 h.
For another assay, the species on record is Bos taurus. Briefly: Inhibition of bovine brain tubulin assessed as blockade of microtubule polymerization.
Assay [3] concerns DU-145. Nature of the assay: Cytotoxicity against human DU145 cells after 48 hrs by SRB assay. It is filed as functional, cell-based. The settings on record: DU-145, 48 h.

One may read the IC50 as the concentration that gives 50% inhibition. A low value points to higher potency. As to `COc1ccccc1C(=O)c1csc(-c2ccccc2)n1`, the IC50 in the assay with A-375 is 70300 nM; in assay [1] it was 59400 nM; with LNCaP it was above 20000 nM; with PC-3 it was above 20000 nM; with PPC-1 it was above 20000 nM; with DU-145 [2], above 20000 nM.

`COc1cc(C(=O)c2cscn2)cc(OC)c1OC`: the IC50 is above 100000 nM with A-375; above 100000 nM in assay [1]; above 20000 nM in the assay with LNCaP; above 20000 nM in the assay with PC-3; above 20000 nM in the assay on PPC-1; above 20000 nM in the assay on DU-145 [2].

With `COc1cc(C(=O)c2csc(-c3ccccc3)n2)cc(OC)c1OC`, the half-inhibitory concentration (IC50) came out at 28 nM with A-375; 55 nM in assay [1]; 28 nM with LNCaP; 21 nM in the assay with PC-3; 43 nM with PPC-1; 71 nM with DU-145 [2]. The Activity result in the assay listed under Bos taurus is “Dose-dependent effect”.

Turning to `COc1ccc(-c2nc(C(=O)c3cc(OC)c(OC)c(OC)c3)cs2)cc1OC`, the IC50 came out at 34 nM with A-375; 102 µM with DU-145 [3]; 161 nM in assay [1]; 38 nM with LNCaP; 69 nM in the assay with PC-3; 56 nM in the assay on PPC-1.

On to `COc1cc(NC(=O)[C@@H]2CSC(c3cc(OC)c(OC)c(OC)c3)N2)cc(OC)c1OC` (mixture of isomers), for which the IC50 with A-375 is above 100000 nM; in assay [1], above 100000 nM; in the assay with LNCaP it was above 20000 nM; in the assay on PC-3, above 20000 nM; in the assay on PPC-1, above 20000 nM; with DU-145 [2], above 20000 nM.

For `COc1ccc(C(=O)c2csc(-c3ccccc3)n2)cc1OC`, the half-maximal inhibitory concentration (IC50) in the assay with A-375 was above 100000 nM; in assay [1], above 100000 nM; in the assay on LNCaP, above 20000 nM; in the assay on PC-3 it was above 20000 nM; in the assay on PPC-1 it was above 20000 nM; in the assay with DU-145 [2], above 20000 nM.

Take `O=C(c1ccccn1)c1csc(-c2ccccc2)n1`: the IC50 in the assay on A-375 is above 100000 nM; in assay [1], above 100000 nM; with LNCaP, above 20000 nM; in the assay on PC-3 it was above 20000 nM; in the assay with PPC-1 it was above 20000 nM; in the assay with DU-145 [2], above 20000 nM.

For the molecule `COc1cc(C(=O)c2csc(-c3ccc(N)cc3)n2)cc(OC)c1OC`, the IC50 in the assay on A-375 was 11 nM; in assay [1], 29 nM; in the assay with LNCaP, 13 nM; in the assay on PC-3 it was 12 nM; with PPC-1, 15 nM; with DU-145 [2], 20 nM.

Turning to `COc1cc(C(=O)c2csc(-c3ccccc3F)n2)cc(OC)c1OC`, the half-maximal inhibitory concentration (IC50) with A-375 worked out at 30 nM; in assay [1], 27 nM; in the assay with LNCaP, 53 nM; in the assay on PC-3 it was 82 nM; in the assay with PPC-1, 52 nM; with DU-145 [2] it was 114 nM.
